Reference: patent US7163952B2, “Azole compound and medicinal use thereof” (Japan Tobacco Inc., priority 2001, dated 2007)
Structures can show the parent of a compound that is named as a salt.

SMILES	melting point
CC(C)N(Cc1ccc(C(=O)O)cc1)c1nc(-c2ccc(OCc3ccc(Cl)c(Cl)c3)cc2)cs1 [Example 77, 4-((N-(4-(4-(3,4-dichlorobenzyloxy)phenyl)-2-thiazolyl)-N-isopropylamino)methyl)benzoic acid]	180 to 181 °C
CC(C)Oc1ccc(C(=O)Nc2ccc(-c3csc(Cc4ccc(C(=O)O)cc4)n3)cc2)cc1 [Example 69, 4-(4-(4-(4-isopropoxybenzoylamino)phenyl)-2-thiazolylmethyl)benzoic acid]	230 °C (dec.)
CC(C)N(c1ccc(OCC(=O)O)cc1)c1nc(-c2ccc(NC(=O)c3ccc(N4CCOCC4)cc3)cc2)cs1 [Example 54, (4-(N-isopropyl-N-(4-(4-(4-morpholinobenzoylamino)phenyl)-2-thiazolyl)amino)phenoxy)acetic acid]	250 °C (dec.)
CN(CCc1ccc(N2CCOCC2)cc1)c1ccc(-c2csc(N(C)Cc3ccc(C(=O)O)cc3)n2)cc1 [Example 238, 4-((N-methyl-N-(4-(4-(N-methyl-N-(2-(4-morpholinophenyl)ethyl)amino)phenyl)-2-thiazolyl)amino)methyl)benzoic acid]	212 to 213 °C
CN(c1ccc(C(=O)O)cc1)c1nc(-c2ccc(NCc3ccc(C(F)(F)F)cc3)cc2)cs1 [Example 133, 4-(N-methyl-N-(4-(4-(4-trifluoromethylbenzylamino)phenyl)-2-thiazolyl)amino)benzoic acid]	230 °C (dec.)
CC(C)N(c1ccc(C(=O)O)cc1)c1nc(-c2ccc(OCc3ccc(Cl)c(Cl)c3)cc2)cs1 [Example 96, 4-(N-(4-(4-(3,4-dichlorobenzyloxy)phenyl)-2-thiazolyl)-N-isopropylamino)benzoic acid]	236 to 238 °C
CC(C)N(c1ccc(C(=O)O)cc1)c1nc(-c2ccc(NC(=O)c3ccc(N4CCCCC4)cc3)cc2)cs1.Cl	230 °C (dec.)
CN(CCc1ccc(Cl)c(Cl)c1)c1ccc(-c2csc(N(C)Cc3ccc(C(=O)O)cc3)n2)cc1 [Example 224, 4-((N-(4-(4-(N-(2-(3,4-dichlorophenyl)ethyl)-N-methylamino)phenyl)-2-thiazolyl)-N-methylamino)methyl)benzoic acid]	151 to 152 °C
CN(Cc1ccc(C(=O)OC2OC(=O)c3ccccc32)cc1)c1nc(-c2ccc(OCc3ccc(C4CCCCC4)cc3)cc2)cs1 (centres unmarked) [Example 248, 3-oxo-1,3-dihydroisobenzofuran-1-yl 4-((N-(4-(4-(4-cyclohexylbenzyloxy)phenyl)-2-thiazolyl)-N-methylamino)methyl)benzoate]	104 to 105 °C
CN(Cc1ccc(C(=O)O)cc1)c1nc(-c2ccc(OCc3ccc(C4CCCCC4)cc3)cc2)cs1 (as salt: hydrochloride) [Example 252, 4-((N-(4-(4-(4-cyclohexylbenzyloxy)phenyl)-2-thiazolyl)-N-methylamino)methyl)benzoic acid hydrochloride]	174 °C (dec.)
CC(C)N(c1cccc(C(=O)O)c1)c1nc(-c2ccc(NC(=O)c3ccc(N4CCOCC4)cc3)cc2)cs1.Cl	230 °C (dec.)
CN(C)c1ccc(CCN(C)c2ccc(-c3csc(N(C)Cc4ccc(C(=O)O)cc4)n3)cc2)cc1 [Example 237, 4-((N-(4-(4-(N-(2-(4-dimethylaminophenyl)ethyl)-N-methylamino)phenyl)-2-thiazolyl)-N-methylamino)methyl)benzoic acid]	164 to 167 °C
CC(=O)N1CCC(c2ccc(CN(C)c3ccc(-c4csc(N(C)Cc5ccc(C(=O)O)cc5)n4)cc3)cc2)CC1 [Example 211, 4-((N-(4-(4-(N-(4-(1-acetylpiperidin-4-yl)benzyl)-N-methylamino)phenyl)-2-thiazolyl)-N-methylamino)methyl)benzoic acid]	208 to 210 °C
CN(Cc1ccc(C(F)(F)F)cc1)c1ccc(-c2csc(N(C)Cc3ccc(C(=O)O)cc3)n2)cc1 [Example 234, 4-((N-methyl-N-(4-(4-(N-methyl-N-(4-trifluoromethylbenzyl)amino)phenyl)-2-thiazolyl)amino)methyl)benzoic acid]	180 to 181 °C
CN(Cc1ccc(C(=O)OCC(=O)OC(C)(C)C)cc1)c1nc(-c2ccc(OCc3ccc(C4CCCCC4)cc3)cc2)cs1 [Example 267, tert-butoxycarbonylmethyl 4-((N-(4-(4-(4-cyclohexylbenzyloxy)phenyl)-2-thiazolyl)-N-methylamino)methyl)benzoate]	122 to 123 °C

Second part, the compound after the results:

melting point	SMILES
159 to 163 °C	CN(Cc1ccc(C(=O)O)cc1)c1nc(-c2ccc(CN3CCN(c4ccccc4)CC3)cc2)cs1 [Example 239, 4-((N-methyl-N-(4-(4-(4-phenyl-1-piperazinylmethyl)phenyl)-2-thiazolyl)amino)methyl)benzoic acid]
175 to 178 °C	COCCN(c1ccc(C(=O)O)cc1)c1nc(-c2ccc(OCc3ccc(Cl)c(Cl)c3)cc2)cs1 [Example 99, 4-(N-(4-(4-(3,4-dichlorobenzyloxy)phenyl)-2-thiazolyl)-N-(2-methoxyethyl)amino)benzoic acid]
148 to 150 °C	Cc1ccc(OCc2ccccc2)c(-c2csc(N(CCC3CCCCC3)c3ccc(C(=O)O)cc3)n2)c1 [Example 175, 4-(N-(4-(2-benzyloxy-5-methylphenyl)-2-thiazolyl)-N-(2-cyclohexylethyl)amino)benzoic acid]
231 to 232 °C	CC(C)CN(c1ccc(C(=O)O)cc1)c1nc(-c2ccc(NC(=O)C3CCCCC3)cc2)cs1 [Example 13, 4-(N-(4-(4-(cyclohexanecarbonylamino)phenyl)-2-thiazolyl)-N-isobutylamino)benzoic acid]
230 °C (dec.)	O=C(O)c1ccc(Nc2nc(-c3ccc(OCc4ccc(C5CCCCC5)cc4)cc3)cs2)c(OCCC2CCCCC2)c1 [Example 72, 4-(4-(4-(4-cyclohexylbenzyloxy)phenyl)-2-thiazolylamino)-3-(2-cyclohexylethoxy)benzoic acid]
195 to 198 °C	O=C(O)c1ccc(N(CCC2CCCCC2)c2nc(-c3cc(Cl)ccc3OCc3ccc(Cl)c(Cl)c3)cs2)cc1 [Example 178, 4-(N-(4-(5-chloro-2-(3,4-dichlorobenzyloxy)phenyl)-2-thiazolyl)-N-(2-cyclohexylethyl)amino)benzoic acid]
169 to 171 °C	CN(Cc1ccc(C(=O)O)cc1)c1nc(-c2cc(Cl)ccc2OCc2ccccc2)cs1 [Example 163, 4-((N-(4-(2-benzyloxy-5-chlorophenyl)-2-thiazolyl)-N-methylamino)methyl)benzoic acid]
157 to 159 °C	CN(Cc1ccc(C2CCCCC2)cc1)c1ccc(-c2csc(N(C)Cc3ccc(C(=O)O)cc3)n2)cn1 [Example 226, 4-((N-(4-(6-(N-(4-cyclohexylbenzyl)-N-methylamino)-3-pyridyl)-2-thiazolyl)-N-methylamino)methyl)benzoic acid]
130 °C (dec.)	CN(Cc1ccc(C2CCCCC2)cc1)c1ccc(-c2csc(N(C)Cc3ccc(C(=O)O)cc3)n2)cc1.O=S(=O)(O)O
230 °C (dec.)	CC(C)(C)c1ccc(COc2ccc3nc(-c4csc(N(CC5CCCCC5)c5ccc(C(=O)O)cc5)n4)oc3c2)cc1 [Example 188, 4-(N-(4-(6-(4-tert-butylbenzyloxy)-2-benzooxazolyl)-2-thiazolyl)-N-cyclohexylmethylamino)benzoic acid]
152 to 155 °C	O=C(O)c1ccc(N(CCOc2ccccc2)c2nc(-c3cc(Cl)ccc3OCc3ccccc3)cs2)cc1 [Example 153, 4-(N-(4-(2-benzyloxy-5-chlorophenyl)-2-thiazolyl)-N-(2-phenoxyethyl)amino)benzoic acid]
260 °C	CN(c1ccc(C(=O)[O-])cc1)c1nc(-c2ccc(NCc3ccc(C4CCCCC4)cc3)cc2)cs1.[Na+] [Example 263, sodium 4-(N-(4-(4-(4-cyclohexylbenzylamino)phenyl)-2-thiazolyl)-N-methylamino)benzoate]
196 to 198 °C	O=C(O)c1ccc(N(Cc2ccc(Cl)c(Cl)c2)c2nc(-c3cc(Cl)ccc3OCc3ccccc3)cs2)cc1 [Example 167, 4-(N-(4-(2-benzyloxy-5-chlorophenyl)-2-thiazolyl)-N-(3,4-dichlorobenzyl)amino)benzoic acid]
209 °C (dec.)	CN(Cc1ccc(C2CCCCC2)cc1)c1ccc(-c2csc(NCc3ccc(C(=O)O)cc3)n2)cc1 [Example 247, 4-((4-(4-(N-(4-cyclohexylbenzyl)-N-methylamino)phenyl)-2-thiazolylamino)methyl)benzoic acid]
211 to 212 °C	CN(c1ccc(C(=O)O)cc1)c1nc(-c2cc(Cl)ccc2OCc2ccccc2)cs1 [Example 151, 4-(N-(4-(2-benzyloxy-5-chlorophenyl)-2-thiazolyl)-N-methylamino)benzoic acid]
117 to 118 °C	CCOC(=O)c1ccc(CN(C)c2nc(-c3ccc(OCc4ccc(C5CCCCC5)cc4)cc3)cs2)cc1 [Example 249, ethyl 4-((N-(4-(4-(4-cyclohexylbenzyloxy)phenyl)-2-thiazolyl)-N-methylamino)methyl)benzoate]
230 °C (dec.)	CC(C)N(c1cccc(C(=O)O)c1)c1nc(-c2ccc(NC(=O)c3ccc(C4CCCCC4)cc3)cc2)cs1 [Example 28, 3-(N-(4-(4-(4-cyclohexylbenzoylamino)phenyl)-2-thiazolyl)-N-isopropylamino)benzoic acid]
215 to 218 °C	CC(C)c1ccc(COc2ccc(Cl)cc2-c2csc(Nc3ccc(C(=O)O)cc3)n2)cc1 [Example 173, 4-(4-(5-chloro-2-(4-isopropylbenzyloxy)phenyl)-2-thiazolylamino)benzoic acid]
191 to 193 °C	CN(Cc1ccc(C(=O)O)cc1)c1nc(-c2ccc(N(C)C[C@H]3CC[C@H](c4ccccc4)CC3)cc2)cs1 [Example 213, trans-4-((N-methyl-N-(4-(4-(N-methyl-N-(4-phenylcyclohexylmethyl)amino)phenyl)-2-thiazolyl)amino)methyl)benzoic acid]
230 °C (dec.)	O=C(O)c1ccc(COc2cc(C(=O)O)ccc2Nc2nc(-c3ccc(OCc4ccc(C5CCCCC5)cc4)cc3)cs2)cc1 [Example 74, 3-(4-carboxybenzyloxy)-4-(4-(4-(4-cyclohexylbenzyloxy)phenyl)-2-thiazolylamino)benzoic acid]
